The text below walks through data of paper PMC4182326, “Synthesis and Characterization of Novel 2-Amino-Chromene-Nitriles that Target Bcl-2 in Acute Myeloid Leukemia Cell Lines” (PLoS ONE, 2014).

pIC50: −log10 of the molar value.

Assay [1] addresses T1, Bcl-2 (Homo sapiens, UniProt P10415).
T1 construct: gene BCL2
In words: Zymed Bcl-2 ELISA; % inhibition of Bcl-2 binding to its antibody at […]. (An ELISA detects its analyte on a solid surface through an enzyme-linked reagent.)

Assay [2] concerns the target T1, Bcl-2. Kind of assay: Zymed Bcl-2 ELISA; inhibition of Bcl-2 binding to its antibody.

T1 sequence (P10415 whole entry): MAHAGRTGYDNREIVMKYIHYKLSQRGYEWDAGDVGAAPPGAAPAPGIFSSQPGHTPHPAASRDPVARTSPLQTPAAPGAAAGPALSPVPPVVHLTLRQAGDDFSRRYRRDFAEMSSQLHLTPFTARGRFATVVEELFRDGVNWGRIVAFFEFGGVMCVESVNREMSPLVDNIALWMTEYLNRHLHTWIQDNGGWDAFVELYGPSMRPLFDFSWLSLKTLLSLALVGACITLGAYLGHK

As usually defined, the inhibition is the share of the control response that was lost under treatment. Lower therefore signals a response near the control. In the case of `N#CC1=C(N)Oc2cc3ccccc3cc2C1c1ccccc1[N+](=O)[O-]` (stereo not shown) [4f, 2-amino-4-(2-nitrophenyl)-4H-benzo[g]chromene-3-carbonitrile], the inhibition at 30 µM in assay [1] is 61.9%. Consider `N#CC1=C(N)Oc2cc3ccccc3cc2C1c1cccc([N+](=O)[O-])c1` (stereo not shown) [4a, 2-amino-4-(3-nitrophenyl)-4H-benzo[g]chromene-3-carbonitrile], for which, in assay [1], the inhibition at 30 µM stood at 37.8%.

Regarding `N#CC1=C(N)Oc2cc3ccccc3cc2C1c1ccc(F)cc1` (stereo not shown) [4h, 2-amino-4-(4-fluorophenyl)-4H-benzo[g]chromene-3-carbonitrile], the inhibition at 30 µM in assay [1] is 53%. In general, pIC50 refers to the negative decadic logarithm of the IC50, by convention in mol/L. A lower pIC50 goes with a high IC50. The compound `N#CC1=C(N)Oc2cc3ccccc3cc2C1c1c(Cl)cccc1Cl` (stereo not shown) [4g, 2-amino-4-(2,6-dichlorophenyl)-4H-benzo[g]chromene-3-carbonitrile] gave a pIC50 in assay [2] of 4.75.
